Each compound was assayed against T1, menin-MLL interaction (Homo sapiens, UniProt O00255) (assay: Fluorescence polarization (FP) competition assay of the menin-MLL interaction). Conditions: inhibition of the menin-MLL interaction; read-out: IC50 values for Table 1 inhibitors of menin.
T1 sequence (O00255 1-610): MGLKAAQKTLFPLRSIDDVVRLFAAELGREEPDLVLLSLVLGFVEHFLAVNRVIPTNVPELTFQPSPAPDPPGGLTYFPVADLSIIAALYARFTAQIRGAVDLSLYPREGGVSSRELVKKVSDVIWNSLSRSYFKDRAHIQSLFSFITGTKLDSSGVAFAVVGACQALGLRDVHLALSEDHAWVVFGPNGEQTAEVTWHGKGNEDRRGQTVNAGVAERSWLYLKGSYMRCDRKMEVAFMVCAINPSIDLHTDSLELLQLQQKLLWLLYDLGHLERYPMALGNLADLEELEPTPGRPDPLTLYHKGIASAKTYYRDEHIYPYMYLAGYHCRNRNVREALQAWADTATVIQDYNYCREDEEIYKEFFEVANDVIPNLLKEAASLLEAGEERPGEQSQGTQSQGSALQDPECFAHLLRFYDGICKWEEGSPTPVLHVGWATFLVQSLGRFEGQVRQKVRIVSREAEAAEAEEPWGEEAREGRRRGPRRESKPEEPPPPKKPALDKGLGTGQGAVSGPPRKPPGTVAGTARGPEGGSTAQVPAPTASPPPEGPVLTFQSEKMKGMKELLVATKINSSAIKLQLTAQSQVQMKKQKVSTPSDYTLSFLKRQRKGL
Type: binding

| IC50 [nM] | SMILES |
| --- | --- |
| 30 to 100 | Cc1c(CN2CCC(Nc3ncnc4sc(CC(F)(F)F)cc34)CC2)ccc2c1cc(C#N)n2CCc1ccc(P(C)(C)=O)cc1 [Compound 202] |
| 30 to 100 | C=CC(=O)NCc1cc(Cn2c(C#N)cc3c(C)c(CN4CCC(Nc5ncnc6sc(CC(F)(F)F)cc56)CC4)ccc32)n[nH]1 [Compound 10] |
| 30 to 100 | C=CC(=O)Nc1ccc([C@@](C)(O)Cn2c(C#N)cc3c(C)c(CN4CCC(Nc5ncnc6sc(CC(F)(F)F)cc56)CC4)ccc32)cc1 [Compound 244] |
| 30 to 100 | Cc1c(CN2CCC(Nc3ncnc4sc(CC(F)(F)F)cc34)CC2)ccc2c1cc(C#N)n2CC(O)c1cccc(S(C)(=O)=O)c1 (stereo not drawn) [Compound 197] |
| 30 to 100 | C=CC(=O)Nc1nc(CCn2c(C#N)cc3c(C)c(CN4CCC(Nc5ncnc6sc(CC(F)(F)F)cc56)CC4)ccc32)cs1 [Compound 34, N-(4-(2-(2-cyano-4-methyl-5-((4-((6-(2,2,2-trifluoroethyl)thieno[2,3-d]pyrimidin-4-yl)amino)piperidin-1-yl)methyl)-1H-indol-1-yl)ethyl)thiazol-2-yl)acrylamide] |
| 30 to 100 | [2H]C([2H])=C([2H])C(=O)Nc1ccc(C(O)Cn2c(C#N)cc3c(C)c(CN4CCC(Nc5ncnc6sc(CC(F)(F)F)cc56)CC4)ccc32)cn1 (stereo not drawn) [Compound 242] |
| < 30 | C=CC(=O)N[C@H]1CCN(CCn2c(C#N)cc3c(C)c(CN4CCC(Nc5ncnc6sc(CC(F)(F)F)cc56)CC4)ccc32)C1 [Compound 31] |
| < 30 | C=CC(=O)Nc1ccc(CCn2c(C#N)cc3c(C)c(CN4CCC(Nc5ncnc6sc(CC(F)(F)F)cc56)CC4)ccc32)cn1 [Compound 100, N-(5-(2-(2-cyano-4-methyl-5-((4-(6-(2,2,2-trifluoroethyl)thieno[2,3-d]pyrimidin-4-ylamino)piperidin-1-yl)methyl)-1H-indol-1-yl)ethyl)pyridin-2-yl)acrylamide] |
| < 30 | C=CC(=O)Nc1ccc(C(O)Cn2c(C#N)cc3c(C)c(CN4CCC(Nc5ncnc6sc(CC(F)(F)F)cc56)CC4)ccc32)cn1 (stereo not drawn) [Compound 112] |

More lines, now with the values behind:

| SMILES | IC50 [nM] |
| --- | --- |
| C=CS(=O)(=O)N1CCN(CCn2c(C#N)cc3c(C)c(CN4CCC(Nc5ncnc6sc(CC(F)(F)F)cc56)CC4)ccc32)CC1 [Compound 3, 4-methyl-1-(2-(4-vinylsulfonylpiperazin-1-yl)ethyl)-5-((4-((6-(2,2,2-trifluoroethyl)thieno[2,3-d]pyrimidin-4-yl)amino)piperidin-1-yl)methyl)-1H-indole-2-carbonitrile] | < 30 |
| C=CS(=O)(=O)N1CC2CC1CN2CCn1c(C#N)cc2c(C)c(CN3CCC(Nc4ncnc5sc(CC(F)(F)F)cc45)CC3)ccc21 (stereo not drawn) [Compound 17, 4-methyl-5-((4-((6-(2,2,2-trifluoroethyl)thieno[2,3-d]pyrimidin-4-yl)amino)piperidin-1-yl)methyl)-1-(2-(5-(vinylsulfonyl)-2,5-diazabicyclo[2.2.1]heptan-2-yl)ethyl)-1H-indole-2-carbonitrile] | 100 to 1000 |
| C=CC(=O)N1CCC(C(O)Cn2c(C#N)cc3c(C)c(CN4CCC(Nc5ncnc6sc(CC(F)(F)F)cc56)CC4)ccc32)CC1 (stereo not drawn) [Compound 210] | 100 to 1000 |
| C=CC(=O)NC1CCN(CCn2c(C#N)cc3cc(CN4CCC(Nc5ncnc6sc(CC(F)(F)F)cc56)CC4)c(O)cc32)CC1 [Compound 93] | < 30 |
| C=CC(=O)N1CCC2(CC1)CN(CCn1c(C#N)cc3c(C)c(CN4CCC(Nc5ncnc6sc(CC(F)(F)F)cc56)CC4)ccc31)C2 [Compound 178] | 30 to 100 |
| C=CC(=O)N1CCC2(CCN(CCn3c(C#N)cc4c(C)c(CN5CCC(Nc6ncnc7sc(CC(F)(F)F)cc67)CC5)ccc43)CC2)C1 [Compound 170] | 30 to 100 |
| C=CC(=O)N1CCC(Cn2c(C#N)cc3c(C)c(CN4CCC(Nc5ncnc6sc(CC(F)(F)F)cc56)CC4)ccc32)CC1 [Compound 233] | 30 to 100 |
| Cc1c(CN2CCC(Nc3ncnc4sc(CC(F)(F)F)cc34)CC2)ccc2c1cc(C#N)n2CCN1CCC2(CCNC2)CC1 [Compound 169] | 30 to 100 |
| C=CC(=O)N1CCC(Cn2c(C#N)cc3c(C)c(CN4CCC(Nc5ncnc6sc(CC(F)(F)F)cc56)CC4)ccc32)C1 (stereo not drawn) [Compound 208] | 30 to 100 |
| C=CC(=O)N1CC2(CCN(CCn3c(C#N)cc4c(C)c(CN5CCC(Nc6ncnc7sc(CC(F)(F)F)cc67)CC5)ccc43)C2)C1 [Compound 182] | 30 to 100 |
| C[Si](C)(C)CCOCn1c(P(C)(C)=O)cc2cc(CN3CCC(Nc4ncnc5sc(CC(F)(F)F)cc45)CC3)ccc21 [Compound 207] | > 1000 |
| CCC(=O)N1CCCN(CCn2c(C#N)cc3c(C)c(CN4CCC(Nc5ncnc6sc(CC(F)(F)F)cc56)CC4)ccc32)CC1 [Compound 103] | 30 to 100 |
| C=CC(=O)N1CC2CN(CCn3c(C#N)cc4c(C)c(CN5CCC(Nc6ncnc7sc(CC(F)(F)F)cc67)CC5)ccc43)CC2C1 (stereo not drawn) [Compound 168] | 30 to 100 |
| C=CC(=O)N1C2CCC1CN(CCn1c(C#N)cc3c(C)c(CN4CCC(Nc5ncnc6sc(CC(F)(F)F)cc56)CC4)ccc31)C2 [Compound 24] | 30 to 100 |
| C=CS(=O)(=O)N1CCC(CCn2c(C#N)cc3c(C)c(CN4CCC(Nc5ncnc6sc(CC(F)(F)F)cc56)CC4)ccc32)CC1 [Compound 8] | < 30 |
| C=CC(=O)N1CC2(CN(CCn3c(C#N)cc4c(C)c(CN5CCC(Nc6ncnc7sc(CC(F)(F)F)cc67)CC5)ccc43)C2)C1 [Compound 174] | 30 to 100 |

These compounds were tested on MV4; 11 cells (harboring MLL-AF4 fusion protein) (assay: In vivo xenograft study with MV4;11 cells injected subcutaneously). Conditions: once daily, i.p., 25 mg/kg; treatment initiated when tumors reached ~100 mm^3.
Set-up: species or system CB17 SCID mice
Text: FIG. 3 depicts in vivo xenograft studies with MV4; 11 cells (harboring MLL-AF4 fusion protein) injected subcutaneously into CB17 SCID mice.
Efficacy Study in Mouse Xenograft Tumor Model.
Immunodeficient mice, such as 8-10 week-old female nude (nu/nu) mice, are used for in vivo efficacy studies in accordance with the guidelines approved by IACUC. Leukemia cells, such as human MV4-11 leukemia cells available from ATCC, are implanted subcutaneously via needle into female nude mice (5×10^6 cells/mouse). When the tumor reaches a size of approximately 100 mm^3 in mice, the tumor-bearing mice are randomly assigned to a vehicle control or compound treatment group (8 animals per group). Animals are treated with a compound of the present invention by oral gavage or intraperitoneal injection in an appropriate amount and frequency as can be determined by the skilled artisan without undue experimentation. Subcutaneous tumor volume in nude mice and mice body weight are measured twice weekly. Tumor volumes are calculated by measuring two perpendicular diameters with calipers (V=(length×width^2)/2). Percentage tumor growth inhibition (% TGI=1−[change of tumor volume in treatment group/change of tumor volume in control group]*100) is used to evaluate anti-tumor efficacy. Statistical significance is evaluated using a one-tailed, two sample t test. P<0.05 is considered statistically significant.

| SMILES | tumor volume |
| --- | --- |
| C=CS(=O)(=O)N1CCN(CCn2c(C#N)cc3c(C)c(CN4CCC(Nc5ncnc6sc(CC(F)(F)F)cc56)CC4)ccc32)CC1 [Compound 3, 4-methyl-1-(2-(4-vinylsulfonylpiperazin-1-yl)ethyl)-5-((4-((6-(2,2,2-trifluoroethyl)thieno[2,3-d]pyrimidin-4-yl)amino)piperidin-1-yl)methyl)-1H-indole-2-carbonitrile] | strong reduction of tumor volume |

What follows are compounds tested against T2, menin (Homo sapiens, UniProt O00255) (assay: Crystal structure of menin in complex with compound). Conditions: FIG. 1.
T2 sequence (O00255 1-610): T1 sequence (O00255 1-610)

| SMILES | covalent binding of the compound to a Cys residue on menin |
| --- | --- |
| C=CS(=O)(=O)N1CCN(CCn2c(C#N)cc3c(C)c(CN4CCC(Nc5ncnc6sc(CC(F)(F)F)cc56)CC4)ccc32)CC1 [Compound 3, 4-methyl-1-(2-(4-vinylsulfonylpiperazin-1-yl)ethyl)-5-((4-((6-(2,2,2-trifluoroethyl)thieno[2,3-d]pyrimidin-4-yl)amino)piperidin-1-yl)methyl)-1H-indole-2-carbonitrile] | covalent binding of the compound to a Cys residue on menin |

Reference: USRE49687E1, “Thienopyrimidine and thienopyridine compounds and methods of use thereof” (The Regents of The University of Michigan, priority 2014, dated 2023)
